Where two headings read alike, the source gives them in different places.
What was measured:
Format in all cases: cell-based
GPR84 = target: T1, GPR84 (Homo sapiens, UniProt Q9NQS5); assay: BRET Gαi2 activation biosensor in HEK293 cells transfected with GPR84
T1 construct: expressed in transfected cells; host or cells: HEK293
Text: PBI-4547 (2-[3,5-dipentylphenyl]acetate sodium salt) is a medium-chain FA (MCFA) mimetic (Fig. 1A). Accordingly, we examined the signaling properties of PBI-4547 on receptors known to be activated by MCFAs. […] This biosensor consisted of an Rluc8-tagged Gαi2 subunit, a GFP10-tagged Gγ2 subunit, and an untagged Gβ1. Agonist stimulation and receptor activation triggers a physical separation between the Gα-Rluc8 donor and the GFP10-Gγ2 acceptor, resulting in a decrease in BRET signal, whose amplitude is correlated to ligand efficacy. […] (A) Chemical structure of PBI-4547. (B) Gi pathway activation was monitored in HEK293 cells transfected with GPR84 and the Gαi2 activation biosensor. […] (C) β-arrestin 2 recruitment to activated GPR120 receptor was monitored in HEK293 cells transfected with RLuc8-β-arrestin 2 and GPR120-GFP10. (D) Cells transfected with GPR40 and Gαq or Gαi2 activation biosensor were exposed to increasing concentrations of PBI-4547 or to 500 µM of sodium decanoate, and BRET variation compared with vehicle was measured. Cells were exposed to increasing concentrations of PBI-4547 or to 100 µM of GW9508, and BRET variation compared with vehicle was measured. (E) LanthaScreen TR-FRET competitive binding assay of PBI-4547 and PPAR control agonists to the LBD of PPARα, PPARδ and PPARγ. (F) Cell-based GAL4 transactivation assay in HEK293 cells transfected with the LBD of PPARα, PPARδ or PPARγ, and treated with increasing concentrations of PBI-4547 or PPAR control agonists. Data in (B–D) are expressed as means ± SEM of 4–5 experiments; data in (E,F) are from a representative experiment from a total of 3 to 4 independent experiments. BRET measurements in transiently transfected HEK293 cells were performed as previously described. Ligands were incubated with cells at room temperature for 10 min (G protein biosensors) or 25 min (β-arrestin/GPR120) before collecting BRET[2] readings between Rluc8 and GFP10.

GPR40 = target: T2, GPR40 (Homo sapiens, UniProt O14842); assay: BRET Gαq / Gαi2 activation biosensors in HEK293 cells transfected with GPR40
T2 construct: expressed in transfected cells; host or cells: HEK293
T2 sequence (O14842 whole entry, species assumed): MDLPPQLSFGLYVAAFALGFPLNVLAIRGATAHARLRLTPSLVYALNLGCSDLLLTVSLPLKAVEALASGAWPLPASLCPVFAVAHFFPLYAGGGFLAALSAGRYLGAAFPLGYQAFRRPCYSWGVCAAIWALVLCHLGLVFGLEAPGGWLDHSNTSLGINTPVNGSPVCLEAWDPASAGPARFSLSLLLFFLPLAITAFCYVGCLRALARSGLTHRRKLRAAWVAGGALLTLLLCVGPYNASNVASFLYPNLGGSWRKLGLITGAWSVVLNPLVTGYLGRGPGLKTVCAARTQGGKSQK
Experimental: (§1) Figure 1 PBI-4547 binding and activity on GPR84, GPR40, GPR120, and PPAR receptors. (A) Chemical structure of PBI-4547. (B) Gi pathway activation was monitored in HEK293 cells transfected with GPR84 and the Gαi2 activation biosensor. Cells were co-treated with […] sodium decanoate and increasing concentrations of PBI-4547, and BRET variation compared with vehicle was measured. (C) β-arrestin 2 recruitment to activated GPR120 receptor was monitored in HEK293 cells transfected with RLuc8-β-arrestin 2 and GPR120-GFP10. (D) Cells transfected with GPR40 and Gαq or Gαi2 activation biosensor were exposed to increasing concentrations of PBI-4547 or to 500 µM of sodium decanoate, and BRET variation compared with vehicle was measured. Cells were exposed to increasing concentrations of PBI-4547 or to 100 µM of GW9508, and BRET variation compared with vehicle was measured. […] Data in (B–D) are expressed as means ± SEM of 4–5 experiments; data in (E,F) are from a representative experiment from a total of 3 to 4 independent experiments. […]
(§2) BRET measurements in transiently transfected HEK293 cells were performed as previously described. Ligands were incubated with cells at room temperature for 10 min (G protein biosensors) or 25 min (β-arrestin/GPR120) before collecting BRET[2] readings between Rluc8 and GFP10.

GPR120 = target: T3, GPR120 (Homo sapiens, UniProt Q5NUL3); assay: BRET β-arrestin-2 recruitment to GPR120-GFP10 in HEK293 cells; conditions: Rluc8-β-arrestin-2 / GPR120-GFP10
T3 construct: expressed in transfected cells; host or cells: HEK293
T3 sequence (Q5NUL3 1-361): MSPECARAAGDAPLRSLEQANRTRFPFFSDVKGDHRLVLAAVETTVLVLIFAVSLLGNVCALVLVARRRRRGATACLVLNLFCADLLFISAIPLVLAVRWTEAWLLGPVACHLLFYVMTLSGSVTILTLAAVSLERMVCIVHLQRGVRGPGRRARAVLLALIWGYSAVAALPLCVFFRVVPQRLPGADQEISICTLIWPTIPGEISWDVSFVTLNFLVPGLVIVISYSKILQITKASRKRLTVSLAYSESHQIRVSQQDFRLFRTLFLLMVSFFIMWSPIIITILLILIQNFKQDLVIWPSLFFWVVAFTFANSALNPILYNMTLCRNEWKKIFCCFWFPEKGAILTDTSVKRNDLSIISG
Experimental: as §1, §2

T1 sequence (Q9NQS5 whole entry, species assumed): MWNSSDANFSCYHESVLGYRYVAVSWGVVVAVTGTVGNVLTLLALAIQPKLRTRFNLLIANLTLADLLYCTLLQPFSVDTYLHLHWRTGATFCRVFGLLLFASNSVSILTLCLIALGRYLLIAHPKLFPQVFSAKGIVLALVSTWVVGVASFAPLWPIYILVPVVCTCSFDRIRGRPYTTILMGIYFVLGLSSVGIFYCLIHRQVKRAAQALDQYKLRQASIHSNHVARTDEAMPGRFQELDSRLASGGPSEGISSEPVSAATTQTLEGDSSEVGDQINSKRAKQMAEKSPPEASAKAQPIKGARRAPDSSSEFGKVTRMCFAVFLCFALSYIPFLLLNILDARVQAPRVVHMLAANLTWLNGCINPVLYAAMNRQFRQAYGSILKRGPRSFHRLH

CCCCCc1cc(CCCCC)cc(CC(=O)[O-])c1.[Na+] [PBI-4547, 2-[3,5-dipentylphenyl]acetate sodium salt]
IC50 (GPR84; co-treated with 125 mM sodium decanoate and increasing concentrations of PBI-4547, read-out: IC50, inhibition of GPR84/Gαi2 activation): 17 µM | GPR84/Gαi2-mediated BRET signal modulation (agonist mode) (GPR84; compound alone vs vehicle): did not lead to GPR84/Gαi2-mediated BRET signal modulation | EC50 (GPR40; Gαi2 biosensor, read-out: EC50, GPR40 Gαi2 biosensor BRET signal decrease): 27 µM | EC50 (GPR40; Gαq biosensor, read-out: EC50, GPR40 Gαq biosensor BRET signal decrease): 30 µM | EC50 (GPR120): 48 µM

Reference: article PMC7391726, “Fatty acid mimetic PBI-4547 restores metabolic homeostasis via GPR84 in mice with non-alcoholic fatty liver disease” (Scientific Reports, 2020)
